Test results: PMC6928678, “Simplified Head-to-Tail Cyclic Polypeptides as Biomaterial-Associated Antimicrobials with Endotoxin Neutralizing and Anti-Inflammatory Capabilities” (International Journal of Molecular Sciences, 2019)
≈ marks a conversion by molar mass, not a printed value. Where a SMILES comes first, the peptide text is derived from it. [ ]: non-standard residue; d: D form. Orn = NCCC[C@H](N)C(=O)O

Key:
S. typhimurium 14028 = assay: microbe, parasite or virus in culture; type: cell-based; conditions: 14028, 20 h
S. epidermidis 12228 = assay: microbe, parasite or virus in culture; type: cell-based; conditions: 12228, 20 h
P. aeruginosa 27853 = assay: microbe, parasite or virus in culture; type: cell-based; conditions: 27853, 20 h; read-out: MIC
S. typhimurium 7731 = assay: microbe, parasite or virus in culture; type: cell-based; conditions: 7731, 20 h
E. coli UB 1005 = assay: microbe, parasite or virus in culture; type: cell-based, Escherichia coli; conditions: UB 1005, 20 h
E. coli 25922 = assay: microbe, parasite or virus in culture; type: cell-based, Escherichia coli; conditions: 25922, 20 h
[1] = tested on: lipopolysaccharide (LPS, derived from E. coli 055: B5); assay: BODIPY-TR-cadaverine displacement assay (LPS binding)
Description: Figure 3 (A) The combining ability of OIR3 and gramicidin S (GS; 0.5 μM, 1 μM, 2 μM, […], 8 μM, 16 μM and 32 μM) with lipopolysaccharide (LPS). (B) SPR spectroscopy of the interaction kinetics of the peptides and LPS. The peptides were immobilized on a CM5 sensor chip as a ligand, and LPS was diluted in a series of concentrations (3.125, 6.25, 12.5, 25 and 50 μg/mL). Data shown are three independent experiments.
The BODIPY-TR-cadaverine (BC) displacement assay was previously used to quantify the binding affinities of test compounds to LPS [61]. The fluorescent dye BC is quenched by binding to LPS, causing its fluorescence to disappear. When the antimicrobial peptide is added, if the binding of the peptide to LPS is stronger, BODIPY-TR-cadaverine will be released and the fluorescence restored. Briefly, in a 96-well plate, an equal volume with a different concentration (0.5–64 μM) of peptide was added to a mixture (100 μL) of LPS (25 μg/mL) and BC (2.5 μg/mL) in Tris buffer (pH 7.4), and the background fluorescence was recorded (excitation wavelength 580 nm, emission wavelength 620 nm). The changes in fluorescence were recorded using a Tecan Infinite M200 PRO (Tecan, San Jose, CA, USA); polymyxin B was used as a positive control. Each test was performed independently, in triplicate.

E. coli ATCC 25,922 [2] = assay: Swimming motility assay; type: cell-based; conditions: 0.3% agar; OIR3, IR3, DIR3 at 4 μM and 8 μM; GS at all tested concentrations (1–8 µM)
Description: Figure 10 Swimming motility of E. coli ATCC 25,922 treated with OIR3, IR3, DIR3 and GS. Swim plates were prepared using 0.3% agar and inoculated from overnight cultures standardized to an optical density at 600 nm of 1.0. Images were taken after 20 h incubation at 37 °C. Data shown are the mean ± SD of three independent experiments.
Since E. coli ATCC 25,922 cell walls have flagella, their swimming motility can be measured in LB medium containing 0.3% agar. E. coli ATCC 25,922 bacteria were incubated overnight at 37 °C in a shaker until the OD600 = 1.0, then inoculated into 0.3% agar medium containing 1 µM, 2 µM, 4 µM or 8 µM of antimicrobial peptide and incubated again overnight at 37 °C. The swimming motility for each was then measured; each experiment was repeated three times.

[3] = tested on: oxazolone-induced ear edema; assay: Oxazolone-induced skin inflammation (allergic dermatitis model); conditions: for ear thickness and ear punch weight: mice, topical 0.5%, 1% or 2% w/v on right ear, 24 h after treatment
Description: ICR mice (male, 4–6 weeks old, and 18–22 g) were obtained from the Experimental Animal Center of Harbin Medical University.
4-Ethoxymethylene-2-phenyl-2-oxazolin-5-one (oxazolone, OXA) was used to induce ear edema in mice [66]. […] The fur was clipped from each animal’s abdomen the day before the experiment was conducted. On the day of the experiment (day 0), 50 ul 3% oxazolone induction solution (prepared in a 5:1 (v/v) mixture of acetone: corn oil carrier) was applied to all mice as a single topical application to the shaved abdomen. After 5 days, 50 µL of 1% oxazolone challenge solution (prepared in acetone) was applied as a single topical application to the dorsal area of the right ear for 1 h. Of the peptide solution, vehicle control or positive control (dexamethasone) solution 20 µL was applied topically to the dorsal area of the right ear. The left ear was used as a control. 24 h later, the mice were euthanized by cervical dislocation under ether anesthesia, and two ear punches (6 mm, i.d.) were collected and weighed. The degree of edema and the increase in ear thickness were determined by the increase in the weight and thickness of the right ear punch when compared with that of the left ear.
(4) Ear weight increase %=[Right ear weight (mg)− Left ear weight (mg)]/Left ear weight (mg)× 100%
(5) Increase of the ear thickness% =Right ear thickness (mm)−Left ear thinkcess (mm)/Left ear thickness×100%
Mouse ear tissues were ground in liquid nitrogen and 1 mL of Trizol was added. The total RNA content in each group of ears was extracted using the conventional Trizol method. qRT-PCR was used to measure the mRNA level of inflammatory cytokines TNF-α, IL-6 and IL-1β in mouse ear tissues. One microgram total of RNA was reverse transcribed using M-MLV reverse transcriptase (Takara, Japan). qRT-PCR was performed using a SYBR Green Mix kit (Takara, Japan) with a 7500 Real-Time PCR system according to the manufacturer’s instructions. The mRNA expression levels were normalized to β-actin using the (2^−∆∆Ct) method. The gene expression was normalized to the corresponding mGAPDH level. […]

[4] = tested on: gram-positive strains tested; assay: organism not typed; type: cell-based; conditions: 20 h
[5] = tested on: gram-negative strains tested; assay: Geometric mean of MICs, gram-negative strains; type: cell-based; conditions: 5 gram-negative strains; >128 apparently counted as 256; read-out: nGM (–), geometric mean of the MICs against gram-negative strains
[6] = tested on: all the 9 bacteria tested; assay: Geometric mean of MICs, all 9 bacteria; type: cell-based; conditions: for GM MIC (range of Gram-negative and Gram-positive geometric means): Table 2; for tGM, geometric mean of the MICs against all the 9 bacteria: all 9 bacteria tested
MRSA43300 = assay: microbe, parasite or virus in culture; type: cell-based, Methicillin-resistant Staphylococcus aureus; conditions: 20 h
E. coli ATCC 25,922 [7] = assay: Flow cytometry membrane integrity assay (PI uptake); type: cell-based; conditions: PI 10 ug/mL, 30 min at 4 °C
Description: Figure 7 Flow cytometric analysis. Exponential phase E. coli cells were treated with GS, OIR3 and cellular fluorescence was analyzed by flow cytometry.
Membrane integrity assay. […] FACS flow cytometer (Becton–Dickinson, Franklin Lake, New Jersey, USA USA) was used to obtain the data with a laser excitation wavelength of 488 nm.

SMILES | MIC (S. typhimurium 14028) | MIC (S. epidermidis 12228) | MIC (P. aeruginosa 27853) | MIC (S. typhimurium 7731) | MIC (E. coli UB 1005) | MIC (E. coli 25922) | LPS-binding activity ([1]; 2 μM peptide, BODIPY-TR-cadaverine displacement, LPS 25 μg/mL, Tris buffer pH 7.4) | LPS neutralized (LPS-binding activity) ([1]; 4 μM peptide, BODIPY-TR-cadaverine displacement, LPS 25 μg/mL, Tris buffer pH 7.4) | inhibition of swimming motility (E. coli ATCC 25,922 [2]) | ear thickness and ear punch weight [3] | expression of mRNA of TNF-α, IL-1β and IL-6 in mouse ear tissue ([3]; qRT-PCR, oxazolone-induced skin inflammation) | pGM (+), geometric mean of the MICs against gram-positive strains [4] | MIC [5] | GM MIC (range of Gram-negative and Gram-positive geometric means) [6] | tGM, geometric mean of the MICs against all the 9 bacteria [6] | MIC (MRSA43300) | percentage of PI-positive cells (E. coli ATCC 25,922 [7]; 1/2× MIC (OIR3 1 µM, GS 2 µM)) | percentage of PI-positive cells (E. coli ATCC 25,922 [7]; 1× MIC (OIR3 2 µM, GS 4 µM)) | percentage of PI-positive cells (E. coli ATCC 25,922 [7]; 2× MIC (OIR3 4 µM, GS 8 µM)) | combining ability with LPS ([1]; all concentrations tested (0.5–32 μM))
CC[C@H](C)[C@@H]1NC(=O)[C@H](CCCNC(=N)N)NC(=O)[C@H]([C@@H](C)CC)NC(=O)[C@@H]2CCCN2C(=O)[C@H](CCCNC(=N)N)NC(=O)[C@H]([C@@H](C)CC)NC(=O)[C@H](CCCNC(=N)N)NC(=O)[C@H]([C@@H](C)CC)NC(=O)[C@H](CCCNC(=N)N)NC(=O)[C@H]([C@@H](C)CC)NC(=O)[C@@H]2CCCN2C(=O)[C@H](CCCNC(=N)N)NC(=O)[C@H]([C@@H](C)CC)NC(=O)[C@H](CCCNC(=N)N)NC1=O [OIR3] (cyclo(IRIRIRPIRIRIRP)) | 4 µM (≈ 7.24 µg/mL) | 4 µM (≈ 7.24 µg/mL) | 8 µM (≈ 14.5 µg/mL) | 4 µM (≈ 7.24 µg/mL) | 2 µM (≈ 3.62 µg/mL) | 2 µM (≈ 3.62 µg/mL) | 81% | 98% | significantly inhibit | significantly reduced | significantly down-regulated | 4.0 µM | 3.5 µM (≈ 6.34 µg/mL) | 3.5 to 4.0 µM | 3.7 µM | 4 µM (≈ 7.24 µg/mL) | 25% | 62% | 76.4% | –
CC(C)C[C@@H]1NC(=O)[C@H](CCCN)NC(=O)[C@H](C(C)C)NC(=O)[C@@H]2CCCN2C(=O)[C@@H](Cc2ccccc2)NC(=O)[C@H](CC(C)C)NC(=O)[C@H](CCCN)NC(=O)[C@H](C(C)C)NC(=O)[C@@H]2CCCN2C(=O)[C@@H](Cc2ccccc2)NC1=O [GS, gramicidin S, reference compound] (cyclo(V[Orn]L[dF]PV[Orn]L[dF]P)) | 16 µM (≈ 18.3 µg/mL) | 2 µM (≈ 2.28 µg/mL) | 4 µM (≈ 4.57 µg/mL) | 8 µM (≈ 9.13 µg/mL) | 4 µM (≈ 4.57 µg/mL) | 4 µM (≈ 4.57 µg/mL) | – | – | almost no inhibition | increased | – | 2 µM | 6.1 µM (≈ 6.96 µg/mL) | 2 to 6.1 µM | 3.7 µM | 2 µM (≈ 2.28 µg/mL) | 7.3% | 37.8% | 93.3% | relatively low
